# Measurements as given in ChEMBL document CHEMBL4312017, “Synthesis and discovery of new compounds bearing coumarin scaffold for the treatment of pulmonary fibrosis” (Eur J Med Chem, 2020).
# Activity calls are given as the source filed them. No cut-off for these calls is given here.
# Assays:
# [1] = Oral bioavailability in Sprague-Dawley rat 10 mg/kg measured upto 24 hrs; format: ADME, organism-based; conditions: in vivo
# [2] = Toxicity in BLM-induced C57BL/6 mouse pulmonary fibrosis model assessed as survival rate at 50 and 100 mg/kg, po observed for 28 days; format: organism-based; conditions: in vivo
# [3] = molecular target: T1, Transforming growth factor beta-1 proprotein/Smad3 (Rattus norvegicus) (UniProt P84025+P17246); test: Inhibition of TGFbeta/Smad3 pathway in rat NRK-49F cells assessed as reduction in TGF-beta1-induced COL1A1 expression in at 20 and 40 uM incubated for 24 hrs by Western blot analysis; format: cell-based
# T1 sequence (P17246 whole entry, looked up): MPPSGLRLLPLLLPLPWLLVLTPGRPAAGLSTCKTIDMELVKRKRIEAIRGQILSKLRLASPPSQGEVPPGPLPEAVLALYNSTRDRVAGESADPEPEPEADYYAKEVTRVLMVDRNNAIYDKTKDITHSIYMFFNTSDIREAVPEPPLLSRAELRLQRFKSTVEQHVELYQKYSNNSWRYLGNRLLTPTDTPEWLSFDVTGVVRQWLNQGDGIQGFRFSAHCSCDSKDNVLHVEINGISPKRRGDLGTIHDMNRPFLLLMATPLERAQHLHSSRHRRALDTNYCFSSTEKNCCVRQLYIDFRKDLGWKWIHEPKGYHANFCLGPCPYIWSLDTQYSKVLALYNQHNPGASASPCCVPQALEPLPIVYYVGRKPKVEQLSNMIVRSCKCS
# T1 sequence (P84025 whole entry, looked up): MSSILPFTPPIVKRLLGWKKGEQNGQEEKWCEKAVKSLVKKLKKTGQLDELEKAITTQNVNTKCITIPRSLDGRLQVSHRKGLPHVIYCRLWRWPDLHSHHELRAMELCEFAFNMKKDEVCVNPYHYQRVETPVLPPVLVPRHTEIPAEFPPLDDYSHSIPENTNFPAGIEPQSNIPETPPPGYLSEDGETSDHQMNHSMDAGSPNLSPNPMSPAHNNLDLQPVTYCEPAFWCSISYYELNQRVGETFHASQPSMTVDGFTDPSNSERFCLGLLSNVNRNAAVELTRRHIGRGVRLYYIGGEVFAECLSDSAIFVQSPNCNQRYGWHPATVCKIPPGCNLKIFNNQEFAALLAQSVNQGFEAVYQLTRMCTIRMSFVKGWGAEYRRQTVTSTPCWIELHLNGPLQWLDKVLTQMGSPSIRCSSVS
# [4] = Half life in Sprague-Dawley rat 10 mg/kg, po measured upto 24 hrs; format: ADME, organism-based; conditions: in vivo
# NRK-49F [5] = test: Inhibition of TGF-beta-induced collagen accumulation in rat NRK-49F cells incubated for 2 days by PSR staining based microscopic analysis; format: functional, cell-based; conditions: for IC50: 48 h
# Mus musculus [6] = test: Antifibrotic activity against BLM-induced C57BL/6 mouse pulmonary fibrosis model assessed as reduction in neutrophils in BALF at 100 mg/kg, po administered for 28 days and measured on day 28; format: functional, organism-based
# Mus musculus [7] = test: Antifibrotic activity against C57BL/6 mouse pulmonary fibrosis model assessed as reduction in bleomycin-iduced hydroxyproline level at 50 mg/kg, po administered for 28 days and measured on day 14 and 28 by spectrophotometry; format: functional, organism-based
# Mus musculus [8] = test: Antifibrotic activity against BLM-induced C57BL/6 mouse pulmonary fibrosis model assessed as reduction in total white blood cells in BALF at 100 mg/kg, po administered for 28 days and measured on day 28; format: functional, organism-based
# Mus musculus [9] = test: Antifibrotic activity against C57BL/6 mouse pulmonary fibrosis model assessed as reduction in bleomycin-iduced hydroxyproline level at 100 mg/kg, po administered for 28 days and measured on day 14 and 28 by spectrophotometry; format: functional, organism-based
# [10] = Cytotoxicity against rat NRK-49F cells assessed as cell viability at 10 uM incubated for 72 hrs by MTT assay; format: cell-based; conditions: read-out: Activity
# Mus musculus [11] = test: Antifibrotic activity against BLM-induced C57BL/6 mouse pulmonary fibrosis model assessed as reduction in lymphocytes in BALF at 50 mg/kg, po administered for 28 days and measured on day 28; format: functional, organism-based
# NRK-49F [12] = test: Inhibition of TGF-beta-induced collagen accumulation in rat NRK-49F cells at 10 uM incubated for 2 days by PSR staining based microscopic analysis relative to control; format: functional; conditions: 48 h
# Mus musculus [13] = test: Antifibrotic activity against BLM-induced C57BL/6 mouse pulmonary fibrosis model assessed as increase in time for reduction of alveoli at 50 mg/kg, po administered for 28 days and measured on day 14 and 28 by HE staining based fluorescence microscopy; format: functional, organism-based
# [14] = AUC (0 to t) in Sprague-Dawley rat 10 mg/kg, po measured upto 24 hrs; format: ADME, organism-based; set-up: time < 24 hr, dose 10 mg/kg, route oral; conditions: in vivo
# NIH3T3 = test: Inhibition of TGF-beta-induced […] migration in mouse NIH/3T3 cells at 1 uM incubated for 24 hrs by Transwell assay; format: functional, cell-based
# [15] = AUC (0 to t) in Sprague-Dawley rat at 5 mg/kg, iv measured upto 24 hrs; format: ADME, organism-based; set-up: dose 5 mg/kg, time < 24 hr, route intravenous; conditions: in vivo
# [16] = Cmax in Sprague-Dawley rat at 5 mg/kg, iv measured upto 24 hrs; format: ADME, organism-based; set-up: dose 5 mg/kg, route intravenous; conditions: in vivo
# [17] = Half life in Sprague-Dawley rat at 5 mg/kg, iv measured upto 24 hrs; format: ADME, organism-based; conditions: in vivo
# Mus musculus [18] = test: Antifibrotic activity against BLM-induced C57BL/6 mouse pulmonary fibrosis model assessed as reduction in lymphocytes in BALF at 100 mg/kg, po administered for 28 days and measured on day 28; format: functional, organism-based
# Mus musculus [19] = test: Antifibrotic activity against BLM-induced C57BL/6 mouse pulmonary fibrosis model assessed as decrease in bronchial epithelial vacuolar degeneration at 50 mg/kg, po administered for 28 days and measured on day 14 and 28 by HE staining based fluorescence microscopy; format: functional, organism-based
# [20] = Tmax in Sprague-Dawley rat 10 mg/kg, po measured upto 24 hrs; format: ADME, organism-based; conditions: in vivo
# Mus musculus [21] = test: Antifibrotic activity against BLM-induced C57BL/6 mouse pulmonary fibrosis model assessed as decrease in bronchioles inflammatory cell infiltration at 50 mg/kg, po administered for 28 days and measured on day 14 and 28 by HE staining based fluorescence microscopy; format: functional, organism-based
# [22] = molecular target: T1, Transforming growth factor beta-1 proprotein/Smad3 (Rattus norvegicus); test: Inhibition of TGFbeta/Smad3 pathway in rat NRK-49F cells assessed as reduction in TGF-beta1-induced Smad3 phosphorylation at 20 and 40 uM incubated for 24 hrs by Western blot analysis; format: cell-based
# Mus musculus [23] = test: Antifibrotic activity against BLM-induced C57BL/6 mouse pulmonary fibrosis model assessed as decrease in bronchial epithelial vacuolar degeneration at 100 mg/kg, po administered for 28 days and measured on day 14 and 28 by HE staining based fluorescence microscopy; format: functional, organism-based
# Mus musculus [24] = test: Antifibrotic activity against BLM-induced C57BL/6 mouse pulmonary fibrosis model assessed as decrease in destruction alveolar structure at 50 mg/kg, po administered for 28 days and measured on day 14 and 28 by HE staining based fluorescence microscopy; format: functional, organism-based
# Mus musculus [25] = test: Antifibrotic activity against BLM-induced C57BL/6 mouse pulmonary fibrosis model assessed as decrease in bronchioles inflammatory cell infiltration at 100 mg/kg, po administered for 28 days and measured on day 14 and 28 by HE staining based fluorescence microscopy; format: functional, organism-based
# [26] = Cmax in Sprague-Dawley rat at 10 mg/kg, po measured upto 24 hrs; format: ADME, organism-based; set-up: dose 10 mg/kg, route oral; conditions: in vivo
# Mus musculus [27] = test: Antifibrotic activity against BLM-induced C57BL/6 mouse pulmonary fibrosis model assessed as decrease in destruction alveolar structure at 100 mg/kg, po administered for 28 days and measured on day 14 and 28 by HE staining based fluorescence microscopy; format: functional, organism-based
# [28] = Tmax in Sprague-Dawley rat at 5 mg/kg, iv measured upto 24 hrs; format: ADME, organism-based; conditions: in vivo
# Mus musculus [29] = test: Antifibrotic activity against BLM-induced C57BL/6 mouse pulmonary fibrosis model assessed as reduction in total white blood cells in BALF at 50 mg/kg, po administered for 28 days and measured on day 28; format: functional, organism-based
# [30] = Clearance in Sprague-Dawley rat 10 mg/kg, po measured upto 24 hrs; format: ADME, organism-based; conditions: in vivo
# Mus musculus [31] = test: Antifibrotic activity against BLM-induced C57BL/6 mouse pulmonary fibrosis model assessed as decrease in bronchiolar epithelial cell shedding at 50 mg/kg, po administered for 28 days and measured on day 14 and 28 by HE staining based fluorescence microscopy; format: functional, organism-based
# [32] = molecular target: T1, Transforming growth factor beta-1 proprotein/Smad3 (Rattus norvegicus); test: Inhibition of TGFbeta/Smad3 pathway in rat NRK-49F cells assessed as reduction in TGF-beta1-induced alpha-SMA expression in at 20 and 40 uM incubated for 24 hrs by Western blot analysis; format: cell-based
# Mus musculus [33] = test: Antifibrotic activity against BLM-induced C57BL/6 mouse pulmonary fibrosis model assessed as decrease in bronchiolar epithelial cell shedding at 100 mg/kg, po administered for 28 days and measured on day 14 and 28 by HE staining based fluorescence microscopy; format: functional, organism-based
# Mus musculus [34] = test: Antifibrotic activity against BLM-induced C57BL/6 mouse pulmonary fibrosis model assessed as reduction in neutrophils in BALF at 50 mg/kg, po administered for 28 days and measured on day 28; format: functional, organism-based
# Mus musculus [35] = test: Antifibrotic activity against BLM-induced C57BL/6 mouse pulmonary fibrosis model assessed as increase in time for reduction of alveoli at 100 mg/kg, po administered for 28 days and measured on day 14 and 28 by HE staining based fluorescence microscopy; format: functional, organism-based
# Mus musculus [36] = test: Antifibrotic activity against BLM-induced C57BL/6 mouse pulmonary fibrosis model assessed as decrease in perivascular inflammatory cell infiltration at 50 mg/kg, po administered for 28 days and measured on day 14 and 28 by HE staining based fluorescence microscopy; format: functional, organism-based
# Mus musculus [37] = test: Antifibrotic activity against BLM-induced C57BL/6 mouse pulmonary fibrosis model assessed as decrease in perivascular inflammatory cell infiltration at 100 mg/kg, po administered for 28 days and measured on day 14 and 28 by HE staining based fluorescence microscopy; format: functional, organism-based
structure (smiles),measurement,setting,value
O=C(CN1CCCCC1)Nc1ccc(Oc2cc(=O)oc3ccccc23)cc1,bioavailability,[1],39.9%
same,survival at 672 h,[2],90%
same,inhibition,[3],Active
same,half-life,[4],13.1 h
same,inhibition,NRK-49F [5],Dose-dependent effect
same,IC50,NRK-49F [5],4.31 µM
same,Activity,Mus musculus [6],Active
same,Activity,Mus musculus [7],inactive
same,Activity,Mus musculus [8],Active
same,Activity,Mus musculus [9],Active
same,"viability at 72 h, 10 µM",[10],93.6%
same,Activity,Mus musculus [11],Active
same,inhibition at 10 µM,NRK-49F [12],85.1%
same,Activity,Mus musculus [13],Active
same,AUC(0-t) at 24 h,[14],1100 ng·h/mL
same,inhibition,NIH3T3,Active
same,AUC(0-t) at 24 h,[15],1390 ng·h/mL
same,Cmax,[16],316 ng/mL
same,half-life,[17],7.42 h
same,Activity,Mus musculus [18],Active
same,Activity,Mus musculus [19],Active
same,Tmax,[20],0.63 h
same,Activity,Mus musculus [21],Active
same,inhibition,[22],Active
same,Activity,Mus musculus [23],Active
same,Activity,Mus musculus [24],Active
same,Activity,Mus musculus [25],Active
same,Cmax,[26],74.7 ng/mL
same,Activity,Mus musculus [27],Active
same,Tmax,[28],2.68 h
same,Activity,Mus musculus [29],Active
same,CL/F,[30],108 mL/min/kg
same,Activity,Mus musculus [31],Active
same,inhibition,[32],Active
same,Activity,Mus musculus [33],Active
same,Activity,Mus musculus [34],Active
same,Activity,Mus musculus [35],Active
same,Activity,Mus musculus [36],Active
same,Activity,Mus musculus [37],Active
COc1ccc2c(Nc3ccc(NC(=O)CN4CCN(C)CC4)cc3)cc(=O)oc2c1,inhibition,NRK-49F [5],Dose-dependent effect
same,IC50,NRK-49F [5],4.35 µM
same,"viability at 72 h, 10 µM",[10],87.2%
same,inhibition at 10 µM,NRK-49F [12],80.2%
same,inhibition,NIH3T3,Active
COC(=O)c1ccc2c(c1)NC(=O)/C2=C(\Nc1ccc(N(C)C(=O)CN2CCN(C)CC2)cc1)c1ccccc1 [NINTEDANIB],bioavailability,[1],12%
same,IC50,NRK-49F [5],1.1 µM
same,Activity,Mus musculus [7],inactive
same,"viability at 72 h, 10 µM",[10],40%
same,Activity,Mus musculus [11],Active
same,inhibition at 10 µM,NRK-49F [12],95.5%
same,Activity,Mus musculus [13],Active
same,Activity,Mus musculus [19],Active
same,Activity,Mus musculus [21],Active
same,Activity,Mus musculus [24],Active
same,Activity,Mus musculus [29],Active
same,Activity,Mus musculus [31],Active
same,Activity,Mus musculus [34],Active
same,Activity,Mus musculus [36],Active
